Series [1] concerns CXCL1-induced hPMN chemotaxis. Description: CXCL1-induced hPMN chemotaxis, 48-well microchemotaxis chamber. As to conditions: hPMN pre-incubated 15 min at 37°C, migration 45 min. In kind it is cell-based, human. From the text:
chemotherapy-induced neuropathic pain”
Benedetti, Antonio Giordano, Annamaria Cimini, Marcello Allegretti.
Chemokines were from PeproTech (London, UK). Chemicals and cell culture reagents were from Sigma Aldrich (Saint Louis, MI, USA).
Cell isolation and culture
L’Aquila, Italy. Ethical clearance was obtained to perform these experiments. Human PMNs were […]
blood cells as previously described 1.
Cell viability, as measured by Trypan Blue dye exclusion, was greater than 98%. […]
microchemotaxis chamber, as previously described 2. Briefly, 25 µl of control medium (PBS for […]
the lower compartment of the chemotaxis chamber. […]
(§1) vehicle were seeded in the upper compartment. The two compartments were separated by 5 µm pre-size polycarbonate filter (polyvinylpyrrolidone-free for PMN chemotaxis). The chamber was […]
(§2) Physicochemical characterization […]
(§3) and a turbidity-sensing device. […]
(§4) water/HBSS to a final concentration of 10 μM. Cell membrane homogenates (48 μg protein) were […]

A further series can be described thus: Metabolic stability, dog. It counts as in vitro ADME. As to conditions: Test conc: 2.5 µM. An excerpt: (§5) Table 1 Physicochemical and in Vitro ADME Properties of DF2726A. | column: DF2726A
In the next series the test system is IL-8/CINC1. Description: IL-8/CINC1 immunofluorescence of paw sections of oxaliplatin rats. As to conditions: 30 mg/kg os, rat paw sections. It counts as in vivo, male Wistar rats. Here is the method: Animals were sacrificed and a biopsy (3 mm) was taken from pad of the right hind paw. Biopsies were immediately placed in Zamboni’s fixative, where they were left at 4 °C. Tissues were then transferred to 20% sucrose for at least 24 h and used for immunohistochemistry analysis. Specimens were frozen in Optimal Cutting Temperature compound (OCT, Sakura Finetek Inc, CA, USA) and sliced into 20 μm thick serial coronal sections by cryostat AMES LAB-TEK (Westmont, Illinois, USA). […]
Five slices were examined for each animal. For each slide, 4 fields were counted. For quantitative evaluation of IL-8/CINC-1 (the homolog of IL-8 in rat) and […], photomicrographs for each condition were analysed by ImageJ software (National Institutes of Health, Bethesda, MD, USA) as previously described. […] The signal was first measured on the tissue in an area devoid of signal at visual inspection and assumed as background; the threshold was then set at 1.5 times the background and the surface area and mean grey intensity were measured for all areas above the threshold. […]

Series [2] can be described thus: pKa, logD7.4, logP (SiriusT3 titration). It counts as physicochemical. Here is the method:
as §1, §2, §3, §4

The test system of series [3] is IL-8-induced hPMN chemotaxis. As to conditions: read-out: IC50 (CXCL8 / IL-8-induced hPMN chemotaxis); hPMN pre-incubated 15 min at 37°C, migration 45 min.
From the text: Human mononuclear cells and PMNs were obtained from buffy coats of heparinized peripheral
blood from adult healthy volunteers courtesy of Centro Trasfusionale, Ospedale S. Salvatore,
prepared to 99% purity by dextran sedimentation followed by hypotonic lysis of contaminating red
blood cells as previously described 1. PMNs were washed once with saline and then resuspended at
1.5 x 10^6/ml in HBSS for migration assay. Cell viability, as measured by Trypan Blue dye exclusion, was greater than 98%.
Migration of human PMNs was evaluated by microchamber technique in a 48-well
monocytes and HBSS for PMNs) or chemoattractant (CXCL1, CXCL8) solutions were seeded in
the lower compartment of the chemotaxis chamber. Fifty µl of cell suspension (1.5 x 10^6/ml) pre-
immersion fields at high magnification (100X; Zeiss microscope) were counted after sample
A further series deals with p-JAK2. Description: p-JAK2 western blotting in F11-derived neurons. It counts as cell-based. As to conditions: 24 h. On the technique in general: In western blotting, separated proteins are transferred to a membrane and probed.
The subject of another series is PI3K/p-cortactin. Description: PI3K/p-cortactin western blotting in F11-derived neurons. It counts as cell-based. As to conditions: 24 h.
The next series concerns the target CYP 2D6 (Homo sapiens, UniProt P10635). Kind of series: CYP inhibition 2D6. In kind it is in vitro ADME.
From the text: as §5

The mark [4] stands for this setting: DF2726A 1 µM + oxaliplatin 20 µM.

CYP 2D6, sequence (P10635 whole entry): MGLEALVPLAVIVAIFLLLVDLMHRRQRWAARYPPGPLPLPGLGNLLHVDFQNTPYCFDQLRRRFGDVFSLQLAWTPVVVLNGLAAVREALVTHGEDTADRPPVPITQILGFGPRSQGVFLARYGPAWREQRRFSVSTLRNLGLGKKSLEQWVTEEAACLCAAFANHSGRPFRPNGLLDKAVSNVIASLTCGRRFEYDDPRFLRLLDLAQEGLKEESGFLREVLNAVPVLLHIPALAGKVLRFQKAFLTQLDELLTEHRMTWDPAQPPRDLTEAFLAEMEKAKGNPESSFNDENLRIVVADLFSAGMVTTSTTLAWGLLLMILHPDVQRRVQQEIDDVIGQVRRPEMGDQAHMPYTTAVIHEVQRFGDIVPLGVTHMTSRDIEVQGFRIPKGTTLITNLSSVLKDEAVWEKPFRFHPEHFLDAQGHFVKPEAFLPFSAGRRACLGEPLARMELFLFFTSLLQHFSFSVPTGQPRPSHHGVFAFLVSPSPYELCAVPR

As for `CC(C)(C(=O)O)c1ccc(Nc2nc(C(F)(F)F)cs2)cc1` [DF2726A], the values for the IC50 (in series [1]; in series [3]; against CYP 2D6) were 8 nM, 10 ± 5 nM and greater than 30000 nM, respectively. Besides, in “Metabolic stability, dog”, the Metabolic stability dog worked out at 7.2 µL/min/10^6 cells. In addition, in the series with IL-8/CINC1, the “Effect on oxaliplatin-increased IL-8/CINC1 signalling in the dermis” value is listed as “significantly attenuated”. Further, the log partition coefficient (logP) (as a rule, the decadic logarithm of the partition coefficient of the neutral form, usually between octanol and water) in series [2] turned out to be 4.3. In addition, the pKa (commonly the pH at which an ionisable group is half protonated) in series [2] (0.15 M KCl, 25 ± 1°C) is given as 4.14. For the same molecule, in series [2] (pH 7.4), the logD7.4 was determined as 0.75. For the same molecule, in the series with p-JAK2 (setting [4]), the “p-JAK2, oxaliplatin-treated neurons” value is recorded as “restored control conditions”. The “p-JAK2, paclitaxel-treated neurons” value with p-JAK2 (DF2726A + paclitaxel 10 nM) is “restored control conditions”. In the series with PI3K/p-cortactin (setting [4]), the “PI3K/p-cortactin expression, oxaliplatin-treated neurons” value is recorded as “attenuated this effect”. In addition, the “PI3K/p-cortactin expression, paclitaxel-treated neurons” value in the series on PI3K/p-cortactin (DF2726A + paclitaxel 10 nM) is recorded as “attenuated this effect”.

The record behind these values is article PMC6692352, “DF2726A, a new IL-8 signalling inhibitor, is able to counteract chemotherapy-induced neuropathic pain” (Scientific Reports, 2019).
